From publication PMC8658016, “Identification of New Compounds with Anticonvulsant and Antinociceptive Properties in a Group of 3-substituted (2,5-dioxo-pyrrolidin-1-yl)(phenyl)-Acetamides” (International Journal of Molecular Sciences, 2021) come the findings set out here.

Series [1] concerns mice. Kind of series: 6 Hz (44 mA) seizure test, model of drug-resistant epilepsy. The conditions noted are these: Mus musculus, ip; mice i.p.; 95% confidence interval in parentheses. The class given is in vivo.
Series [2] can be described thus: Rectal temperature measurement. The class given is in vivo, mouse. The note with it: 30 and 60 mg/kg i.p., 30 min. The procedure:
Figure 4 Acute effect of compound 14 on rectal temperature in mice. Compound 14 was administered i.p. 30 min before the seizure test. Control animals received vehicle only. Each experimental group consisted of 10 animals. Each bar represents the mean difference between the pre-injection and post-injection values of rectal temperature in mice (ΔT) + S.E.M. Data were analyzed with one-way ANOVA test (GraphPad Prism 8.0.1).
In this study, we used adult male Swiss albino mice (Kołacz, Laboratory Animals Breeding, Warszawa, Poland) license no. 106/2019 (Local Ethical Committee in Lublin). […]
The timed ivPTZ test was employed to evaluate the acute effect of compound 14 on the seizure thresholds for (1) the first myoclonic twitch, (2) generalized clonic seizure with loss of righting reflex, and (3) forelimb tonus. […] The changes in temperature were recorded using an electronic thermometer (ThermoWorks, Alpine, UT, USA). […]
The probe remained in the rectum for several second, allowing for temperature stabilization. The temperature was recorded just before injection of compound 14 or vehicle and 30 min later. The difference between the pre- and post-injection temperature value was then calculated (Δ °C).

Series [3] has as its system mice. Kind of series: Capsaicin-induced neurogenic pain test. The class given is in vivo. The conditions noted are these: Mus musculus, ip; mice i.p. The protocol:
We used the capsaicin-induced pain model to test the impact of compound 14 on neurogenic pain. In this model, the activation of TRPV1 receptors on C-type primary afferents led to the release of inflammatory neuropeptides, contributing to the local and spinal sensitization and excitability.
The experiments were conducted on adult male Albino Swiss mice (CD-1, 18–25 g) and male Wistar rats (Krf:(WI) WU), 180–250 g) as described previously. The minimum number of animals used needed to obtain definite and normally distributed results with the utilized test. Behavioral measures were scored by trained observers, which were blind to experimental conditions. The following devices were used in the experiments: Analgesy Meter (37215, Ugo Basile), Plantar Test Apparatus (EFV5, Commat Ltd., Turkey), Plethysmometer (Plethysmometer 7140, Ugo Basile), Electronic von Frey unit (BIOSEB, France). […]
Data were presented as means ± standard error of the mean (S.E.M). […] Statistically significant differences between groups were calculated using one-way analysis of variance (ANOVA) and the post hoc Dunnett’s multiple comparison test or two-way analysis of variance (ANOVA) and the post hoc Tukey’s comparison when appropriate. […]

Series [4] relates to rats. In words: Carrageenan-induced thermal hyperalgesia (radiant heat). Type of series: in vivo, rat. The note with it: 80 mg/kg. From the text:
To test the anti-inflammatory activity and the potential to attenuate inflammatory pain, we tested compound 14 in the model of carrageenan-induced aseptic inflammation. In this model, the subplantar injection of carrageenan induced an edema, mechanical, and thermal hyperalgesia. […] In our opinion, the most surprising and interesting was the long-lasting anti-edematous effect. It may result from the pharmacokinetic properties of compound 14, but also from its unique mechanism. Since inflammation is one of the critical components of neuropathy, the anti-inflammatory activity of compound 14 may be a valuable and distinctive property from classical ASDs used to treat neuropathic pain [33]. […] The pain threshold reached 87.3%, 90.9%, and 89.7% of its initial value 3, 6, and 24 h after carrageenan injection, respectively. […] The initial latency for compound 14-treated animals was 8.95 ± 0.4 s. The administration of compound 14 changed the values to 127.0%, 102.0%, 79.8%, 83.8%, and 164.4% of the initial value 1, 2, 3, 6-, and 24-h following carrageenan injection, respectively.
The experiments were conducted on adult male Albino Swiss mice (CD-1, 18–25 g) and male Wistar rats (Krf:(WI) WU), 180–250 g) as described previously. The minimum number of animals used needed to obtain definite and normally distributed results with the utilized test. Behavioral measures were scored by trained observers, which were blind to experimental conditions. The following devices were used in the experiments: Analgesy Meter (37215, Ugo Basile), Plantar Test Apparatus (EFV5, Commat Ltd., Turkey), Plethysmometer (Plethysmometer 7140, Ugo Basile), Electronic von Frey unit (BIOSEB, France). All procedures were performed according to the European Union Directive of 22 September 2010 (2010/63/EU) and approved by the Local Ethics Committee for Experiments on Animals in Krakow, Poland (resolution no. 105/2016).
Figure 8 Effect of compound 14 on carrageenan-induced oedema (A), mechanical hyperalgesia (B), and thermal hyperalgesia (C), developed after subplantar injection of 1% carrageenan in rats. Data are expressed as means ± S.E.M. for 6 animals; 0—the initial value considered as the paw volume (A) or nociceptive reaction (B,C) before carrageenan administration. Statistical significance compared to vehicle-treated animals (control): * p < 0.05, ** p < 0.01, *** p < 0.001, **** p < 0.0001. Statistical analysis: two-way ANOVA post hoc Bonferroni test. Statistical significance in different time points of control group: ^# p < 0.05, ^## p < 0.01, ^### p < 0.001. Statistical analysis: one-way ANOVA, followed by Dunnett’s multiple comparison test (GraphPad Prism 8.0.1).

Series [5] has as its system hepatoma HepG2 cells. Kind of series: Hepatotoxicity, HepG2 viability (MTS). The class given is cell-based. The conditions noted are these: 72 h; viability affected at 100 µM only.
Series [6] in a line: in vivo. The note with it: male, CD-1, mouse, ip.

A word on the ED50: it is the dose at which the effect has come halfway, by size or by number of responders. As for `CN(C)C1CC(=O)N(C(C(=O)N2CCN(c3cccc(C(F)(F)F)c3)CC2)c2ccccc2)C1=O.Cl` (stereo not shown) [Compound 14, 3-(Dimethylamino)-1-(2-oxo-1-phenyl-2-(4-(3-(trifluoromethyl)phenyl)-piperazin-1-yl)ethyl)pyrrolidine-2,5-dione hydrochloride], the ED50 in series [1] worked out at 63.2 mg/kg; in series [3] it was 54.1 mg/kg. The “effect on body (rectal) temperature” value in series [2] was “did not produce statistically significant changes”. Moreover, the “latency of nociceptive response to radiant heat, % of the initial value” is recorded as 127.0% in series [4] (1 h after carrageenan); 102.0% in series [4] (2 h after carrageenan); 79.8% in series [4] (3 h after carrageenan); 83.8% in series [4] (6 h after carrageenan); 164.4% in series [4] (24 h after carrageenan). In addition, in series [5], the “hepatotoxicity (HepG2 viability)” value is “generally non-toxic”. The compound further registered a TD50 in series [6] of 169 mg/kg.
